Where two headings read alike, the source gives them in different places.
Molecular target: NLRP3 inflammasome (Homo sapiens (Human), UniProt Q96P20)
Assay: Evaluation of NLRP3 inflammasome inhibitory activity (inhibition of IL-1β production in THP1-Null cells, LPS/Nigericin)
[1] = IL-1β production in THP1-Null cells, PMA/LPS primed, Nigericin 7.5 μmol/L

Sequence of NLRP3 inflammasome (Q96P20 whole entry): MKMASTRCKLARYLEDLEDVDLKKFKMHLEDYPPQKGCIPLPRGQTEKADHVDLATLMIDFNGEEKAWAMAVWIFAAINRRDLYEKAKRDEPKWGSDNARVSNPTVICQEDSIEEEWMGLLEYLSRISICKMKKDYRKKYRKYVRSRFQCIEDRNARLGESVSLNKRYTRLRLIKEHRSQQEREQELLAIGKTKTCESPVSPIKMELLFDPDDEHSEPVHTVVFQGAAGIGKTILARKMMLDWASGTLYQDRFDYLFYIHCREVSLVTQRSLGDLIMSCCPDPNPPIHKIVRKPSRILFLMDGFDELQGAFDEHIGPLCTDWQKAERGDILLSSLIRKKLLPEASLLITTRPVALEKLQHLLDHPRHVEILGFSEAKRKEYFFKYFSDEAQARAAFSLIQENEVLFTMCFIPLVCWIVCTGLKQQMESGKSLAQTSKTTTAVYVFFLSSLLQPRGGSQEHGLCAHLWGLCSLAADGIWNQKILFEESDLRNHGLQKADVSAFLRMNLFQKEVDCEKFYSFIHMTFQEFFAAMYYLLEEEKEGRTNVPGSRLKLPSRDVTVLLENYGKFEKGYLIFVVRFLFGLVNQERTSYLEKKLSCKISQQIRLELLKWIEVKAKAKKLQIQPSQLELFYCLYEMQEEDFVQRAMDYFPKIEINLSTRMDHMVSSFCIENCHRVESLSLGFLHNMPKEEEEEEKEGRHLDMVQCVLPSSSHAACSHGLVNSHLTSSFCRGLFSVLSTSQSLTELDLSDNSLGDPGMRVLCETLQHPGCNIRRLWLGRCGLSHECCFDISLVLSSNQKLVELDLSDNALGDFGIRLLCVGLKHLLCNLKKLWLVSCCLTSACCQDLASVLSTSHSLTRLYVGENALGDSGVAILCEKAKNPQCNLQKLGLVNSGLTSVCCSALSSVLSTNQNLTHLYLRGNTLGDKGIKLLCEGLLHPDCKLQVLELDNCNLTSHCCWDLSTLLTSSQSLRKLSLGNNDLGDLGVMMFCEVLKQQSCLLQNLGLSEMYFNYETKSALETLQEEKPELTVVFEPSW

Row | Compound | IC50 | IC50 [1]
1 | 2-((8-chloro-1,2,3,5,6,7-hexahydro-s-indacen-4-yl)amino)-N—(N,N-dimethylsulfamoyl)oxazole-4-carboxamide [Example 23] | – | < 30 nM
2 | Cc1ccc(C2CC2)cc1Nc1nc(C(=O)NS(=O)(=O)N2CCC(O)C2)co1 (racemic) [Example 2-002] | 160 nM | –
3 | Cc1ccc(C(F)(F)F)cc1Nc1nc(C(=O)NS(=O)(=O)N2CCOCC2C)co1 (racemic) [Example 2-005] | 30 nM | –
4 | CCC1CN(S(=O)(=O)NC(=O)c2coc(Nc3cc(C(F)(F)F)ccc3C)n2)CCO1 (racemic) [Example 2-006] | 31 nM | –
5 | Cc1ccc(C(F)(F)F)cc1Nc1nc(C(=O)NS(=O)(=O)N2CCOCC2CO)co1 (racemic) [Example 2-045] | 180 nM | –
6 | Cc1ccc(C(F)(F)F)cc1Nc1nc(C(=O)NS(=O)(=O)N2CCOCCC2C)co1 (racemic) [Example 2-058] | 54 nM | –
7 | COC(C)c1ccc(C)c(Nc2nc(C(=O)NS(=O)(=O)N(C)C)co2)c1 (racemic) [Example 2-061] | 570 nM | –
8 | COC1COCCN(S(=O)(=O)NC(=O)c2coc(Nc3cc(C(F)(F)F)ccc3C)n2)C1 (racemic) [Example 2-076] | 25 nM | –
9 | Cc1ccc(C(C)C)cc1Nc1nc(C(=O)NS(=O)(=O)N2CCOCC2C)co1 (racemic) [Example 2-081] | 94 nM | –
10 | CCC1COCCN1S(=O)(=O)NC(=O)c1coc(Nc2cc(C(C)C)ccc2C)n1 (racemic) [Example 2-082] | 160 nM | –
11 | COCC1CN(S(=O)(=O)NC(=O)c2coc(Nc3cc(C(F)(F)F)ccc3C)n2)CCCO1 (racemic) [Example 2-091] | 38 nM | –
12 | Cc1ccc(C(F)(F)F)cc1Nc1nc(C(=O)NS(=O)(=O)N2CCOCC(C)C2)co1 (racemic) [Example 2-092] | 22 nM | –
13 | COCC1CN(S(=O)(=O)NC(=O)c2coc(Nc3c(C(C)C)ccc4c3CCC4)n2)CCO1 (racemic) [Example 2-120] | 160 nM | –
14 | COC1COCCN(S(=O)(=O)NC(=O)c2coc(Nc3cc(C(F)(F)F)ccc3C(C)C)n2)C1 (racemic) [Example 2-121] | 35 nM | –
15 | Cc1ccc(C(F)(F)F)cc1Nc1nc(C(=O)NS(=O)(=O)N2CCOCC(C#N)C2)co1 (racemic) [Example 2-127] | 130 nM | –
16 | Cc1ccc(C(F)(F)F)cc1Nc1nc(C(=O)NS(=O)(=O)N2CCOCC(C(=O)N(C)C)C2)co1 (racemic) [Example 2-143] | 86 nM | –
17 | COC1CCCN(S(=O)(=O)NC(=O)c2coc(Nc3cc(C(F)(F)F)ccc3C)n2)CC1 (racemic) [Example 2-148] | 40 nM | –

Row | Compound | IC50 | IC50 [1]
18 | Cc1ccc(C(F)(F)F)cc1Nc1nc(C(=O)NS(=O)(=O)N2CCCC(O)CC2)co1 (racemic) [Example 2-156] | 39 nM | –
19 | Cc1ccc(C(F)(F)F)cc1Nc1nc(C(=O)NS(=O)(=O)N2CCCC(C(=O)N(C)C)CC2)co1 (racemic) [Example 2-157] | 38 nM | –
20 | COC1CCCN(S(=O)(=O)NC(=O)c2coc(Nc3cc(C(F)(F)F)ccc3C)n2)C1 (racemic) [Example 2-159] | 61 nM | –
21 | CC(C)c1cn(C(C)C)nc1Nc1nc(C(=O)NS(=O)(=O)N2CCOCCC2C)co1 (racemic) [Example 2-184] | 140 nM | –
22 | COC1COCCN(S(=O)(=O)NC(=O)c2coc(Nc3cc(C(C)(F)F)ccc3C)n2)C1 (racemic) [Example 2-185] | 38 nM | –
23 | CCCCS(=O)(=O)N1CCN(S(=O)(=O)NC(=O)c2coc(Nc3cc(C(F)(F)F)ccc3C)n2)CC(F)C1 (racemic) [Example 2-197] | 17 nM | –
24 | Cc1ccc(C(F)(F)F)cc1Nc1nc(C(=O)NS(=O)(=O)N2CCN(S(=O)(=O)CCCF)CC(F)C2)co1 (racemic) [Example 2-198] | 29 nM | –
25 | CCCCS(=O)(=O)N1CCN(S(=O)(=O)NC(=O)c2coc(Nc3cc(C(F)(F)F)ccc3C)n2)CC(OC)C1 (racemic) [Example 2-204] | 29 nM | –
26 | COC1CN(S(=O)(=O)CCCF)CCN(S(=O)(=O)NC(=O)c2coc(Nc3cc(C(F)(F)F)ccc3C)n2)C1 (racemic) [Example 2-205] | 36 nM | –
27 | Cc1ccc(C(F)(F)F)cc1Nc1nc(C(=O)NS(=O)(=O)N2CCCN(C(=O)C3CCOC3)CC2)co1 (racemic) [Example 2-216] | 180 nM | –
28 | Cc1ccc(C(F)(F)F)cc1Nc1nc(C(=O)NS(=O)(=O)N2CCCN(S(=O)(=O)C3CCOC3)CC2)co1 (racemic) [Example 2-220] | 67 nM | –
29 | CCCS(=O)(=O)N1CCN(S(=O)(=O)NC(=O)c2coc(Nc3cc(C(F)(F)F)ccc3C)n2)CC(F)C1 (racemic) [Example 2-222] | 30 nM | –
30 | CC(C)c1ccc(C(F)F)cc1Nc1nc(C(=O)NS(=O)(=O)N2CCCN(S(=O)(=O)C3CCOC3)CC2)co1 (racemic) [Example 2-226] | 97 nM | –
31 | Cc1ccc(C(F)(F)F)cc1Nc1nc(C(=O)NS(=O)(=O)N2CCCOC(C)C2)co1 (racemic) [Example 2-230] | 89 nM | –
32 | Cc1ccc(C(F)(F)F)cc1Nc1nc(C(=O)NS(=O)(=O)N2CCCOCC2C)co1 (racemic) [Example 2-231] | 89 nM | –
33 | CC1(O)CCN(S(=O)(=O)NC(=O)c2coc(Nc3c4c(c(F)c5c3CCC5)CCC4)n2)C1 (racemic) [Example 33, 2-((8-fluoro-1,2,3,5,6,7-hexahydro-s-indacen-4-yl)amino)-N-((3-hydroxy-3-methylpyrrolidin-1-yl)sulfonyl)oxazole-4-carboxamide] | – | 99 nM

The next lines start with results.

Row | IC50 | Compound | IC50 [1]
34 | 30 nM | CC(=O)N(C)C1CCCN(S(=O)(=O)NC(=O)c2coc(Nc3cc(C(F)(F)F)ccc3C)n2)CC1 (racemic) [Example 2-232] | –
35 | 37 nM | CCS(=O)(=O)N1CCCN(S(=O)(=O)NC(=O)c2coc(Nc3cc(C(F)(F)F)ccc3C)n2)C(C)C1 (racemic) [Example 2-241] | –
36 | 45 nM | CCS(=O)(=O)N1CCCN(S(=O)(=O)NC(=O)c2coc(Nc3cc(C(F)(F)F)ccc3C)n2)CC1C (racemic) [Example 2-242] | –
37 | 51 nM | COC1COCCN(S(=O)(=O)NC(=O)c2coc(Nc3cc(C(F)(F)F)c(F)cc3C)n2)C1 (racemic) [Example 2-244] | –
38 | 67 nM | CCN(C)C(=O)C1CCCN(S(=O)(=O)NC(=O)c2coc(Nc3cc(C(F)(F)F)ccc3C)n2)CC1 (racemic) [Example 2-246] | –
39 | 32 nM | CCCS(=O)(=O)N1CCN(S(=O)(=O)NC(=O)c2coc(Nc3cc(C)ccc3C)n2)CC(OC)C1 (racemic) [Example 2-251] | –
40 | 190 nM | CCS(=O)(=O)N1CCN(S(=O)(=O)NC(=O)c2coc(Nc3cc(C)ccc3C)n2)CC(OC)C1 (racemic) [Example 2-252] | –
41 | 87 nM | Cc1ccc(C(F)(F)F)cc1Nc1nc(C(=O)NS(=O)(=O)N2CCCC(C)(C(=O)N(C)C)CC2)co1 (racemic) [Example 2-259] | –
42 | 18 nM | Cc1ccc(C(F)(F)F)cc1Nc1nc(C(=O)NS(=O)(=O)N2CCOC(C)CC2)co1 (racemic) [Example 2-262] | –
43 | 24 nM | Cc1ccc(C(F)(F)F)cc1Nc1nc(C(=O)NS(=O)(=O)N2CCCC(n3cccn3)CC2)co1 (racemic) [Example 2-273] | –
44 | 37 nM | COC1COCCN(S(=O)(=O)NC(=O)c2coc(Nc3cc(C(C)C)ccc3C)n2)C1 (racemic) [Example 2-294] | –
45 | 87 nM | Cc1cc(C)n(C2CCCN(S(=O)(=O)NC(=O)c3coc(Nc4cc(C(F)(F)F)ccc4C)n3)CC2)n1 (racemic) [Example 2-297] | –
46 | 98 nM | COC1COCCN(S(=O)(=O)NC(=O)c2coc(Nc3cc(C)ccc3C(C)C)n2)C1 (racemic) [Example 2-310] | –
47 | 77 nM | CCOC1COCCN(S(=O)(=O)NC(=O)c2coc(Nc3cc(C(F)(F)F)ccc3C)n2)C1 (racemic) [Example 2-318] | –
48 | 110 nM | CCOC1COCCN(S(=O)(=O)NC(=O)c2coc(Nc3cc(C(C)C)ccc3C)n2)C1 (racemic) [Example 2-319] | –
49 | 59 nM | COC1COCCN(S(=O)(=O)NC(=O)c2coc(Nc3cc(C(F)F)ccc3C)n2)C1 (racemic) [Example 2-331] | –

Row | IC50 | Compound | IC50 [1]
50 | 290 nM | Cc1ccc(C(F)(F)F)cc1Nc1nc(C(=O)NS(=O)(=O)N2CCOCC2c2ccccc2)co1 (racemic) [Example 2-346] | –
51 | < 30 nM | CC1COCCN1S(=O)(=O)NC(=O)c1cnc(Nc2c3c(cc4c2CCC4)CCC3)o1 (racemic) [Example 5] | –
52 | 210 nM | CC(C)C1COCCN1S(=O)(=O)NC(=O)c1cnc(Nc2c3c(cc4c2CCC4)CCC3)o1 (racemic) [Example 10] | –
53 | 72 nM | CCC1COCCN1S(=O)(=O)NC(=O)c1cnc(Nc2c3c(cc4c2CCC4)CCC3)o1 (racemic) [Example 11] | –
54 | 4000 nM | COC1CN(S(=O)(=O)NC(=O)c2cnc(Nc3c4c(cc5c3CCC5)CCC4)o2)C1Cl (racemic) [Example 12] | –
55 | < 30 nM | CCC1CN(S(=O)(=O)NC(=O)c2cnc(Nc3c4c(cc5c3CCC5)CCC4)o2)CCO1 (racemic) [Example 16] | –
56 | 160 nM | CN(C1CCOC1)S(=O)(=O)NC(=O)c1cnc(Nc2c3c(cc4c2CCC4)CCC3)o1 (racemic) [Example 24] | –
57 | 51 nM | CC1COCCN1S(=O)(=O)NC(=O)c1coc(Nc2c3c(cc4c2CCC4)CCC3)n1 (racemic) [Example 25] | –
58 | 120 nM | Cc1ccc(C(F)(F)F)cc1Nc1nc(C(=O)NS(=O)(=O)N2CCC(O)C2)co1 (racemic) [Example 29] | –
59 | 190 nM | Cc1ccc2c(c1Nc1nc(C(=O)NS(=O)(=O)N3CCC(O)C3)co1)CCC2 (racemic) [Example 30] | –
60 | 73 nM | COCC1CN(S(=O)(=O)NC(=O)c2coc(Nc3c4c(c(Cl)c5c3CCC5)CCC4)n2)CCO1 (racemic) [Example 38] | –
61 | 930 nM | O=C(NS(=O)(=O)N1CCCC1C(F)(F)F)c1coc(Nc2c3c(c(Cl)c4c2CCC4)CCC3)n1 (racemic) [Example 40] | –
62 | 77 nM | O=C(NS(=O)(=O)N1CCC(O)C1)c1coc(Nc2c3c(c(Cl)c4c2CCC4)CCC3)n1 (racemic) [Example 41] | –
63 | 420 nM | CS(=O)(=O)C1CCN(S(=O)(=O)NC(=O)c2coc(Nc3c4c(c(Cl)c5c3CCC5)CCC4)n2)C1 (racemic) [Example 47] | –
64 | 32 nM | O=C(NS(=O)(=O)N1CCC(O)C1)c1coc(Nc2c3c(c(F)c4c2CCC4)CCC3)n1 (racemic) [Example 52] | –
65 | 46 nM | O=C(NS(=O)(=O)N1CC2CC1CO2)c1coc(Nc2c3c(c(Cl)c4c2CCC4)CCC3)n1 (racemic) [Example 56] | –

— patent US20230399319A1, “Acylsulfamide Compound and Pharmaceutical Use Therefor” (Japan Tobacco Inc., priority 2019, published 2023)
